Columns and labels:
[1] = test system: E. coli and S. aureus DNA gyrase; conditions: in vitro; cited from earlier work
E. coli DNA gyrase = E. coli DNA gyrase (Escherichia coli, UniProt P0AES4+P0AES6); test: in vitro dsDNA break; format: biochemical; conditions: 1 tested at ≤3.3 mM
Sequence of E. coli DNA gyrase (P0AES4 whole entry, one chain of several): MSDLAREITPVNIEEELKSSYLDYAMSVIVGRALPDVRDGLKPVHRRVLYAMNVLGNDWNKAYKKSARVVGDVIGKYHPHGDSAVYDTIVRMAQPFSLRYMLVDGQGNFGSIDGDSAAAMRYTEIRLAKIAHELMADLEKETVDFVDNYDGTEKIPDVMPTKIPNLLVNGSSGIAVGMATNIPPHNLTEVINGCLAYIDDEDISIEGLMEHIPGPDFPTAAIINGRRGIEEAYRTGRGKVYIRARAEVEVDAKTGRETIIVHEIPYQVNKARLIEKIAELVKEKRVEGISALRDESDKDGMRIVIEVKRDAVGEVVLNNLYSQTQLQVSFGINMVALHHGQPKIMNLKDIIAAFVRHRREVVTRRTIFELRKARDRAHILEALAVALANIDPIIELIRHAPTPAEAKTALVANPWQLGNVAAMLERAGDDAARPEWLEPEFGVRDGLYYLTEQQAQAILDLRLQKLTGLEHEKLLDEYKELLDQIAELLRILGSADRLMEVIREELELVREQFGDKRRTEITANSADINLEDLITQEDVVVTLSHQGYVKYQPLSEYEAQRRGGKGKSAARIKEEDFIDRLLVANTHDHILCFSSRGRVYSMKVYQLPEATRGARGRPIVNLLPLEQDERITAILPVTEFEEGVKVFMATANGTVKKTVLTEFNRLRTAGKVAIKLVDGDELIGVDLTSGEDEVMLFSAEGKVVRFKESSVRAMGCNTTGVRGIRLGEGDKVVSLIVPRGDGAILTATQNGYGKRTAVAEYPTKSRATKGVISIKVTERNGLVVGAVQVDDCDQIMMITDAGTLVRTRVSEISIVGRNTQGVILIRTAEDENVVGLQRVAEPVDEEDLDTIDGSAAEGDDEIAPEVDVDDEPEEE

COc1ccc2ncc(F)c([C@@H](O)CC[C@@H]3CCN(CCSc4cccs4)C[C@@H]3C(=O)O)c2c1 [NXL101]
release of dsDNA ends [1]: does not release dsDNA ends

O=C(O)c1cn(C2CC2)c2cc(N3CCNCC3)c(F)cc2c1=O [ciprofloxacin]
generation of dsDNA breaks / linearized DNA (E. coli DNA gyrase): production of dsDNA breaks

— article PMC3088120 (ACS medicinal chemistry letters, 2011)
